According to patent US20130184251A1, “HETEROAROMATIC AND AROMATIC PIPERAZINYL AZETIDINYL AMIDES AS MONOACYLGLYCEROL LIPASE INHIBITORS” (Janssen Pharmaceutica, NV, priority 2009, published 2013):
Like-named read-outs stand apart in the source and are kept apart here.

Columns and labels:
HeLa cells = assay: 2-AG accumulation assay using HeLa cells; assay type: cell-based; settings: Homo sapiens, HeLa cell homogenate, 2-AG accumulation relative to MAFP
Male Sprague Dawley rats [1] = assay: Visceral hyperalgesia model (colorectal distension, zymosan colitis); assay type: in vivo; settings: 30 mg/kg, s.c.; 20 min after dosing; vehicle-treated rats 239.6±28.9% of control
Method: This protocol uses barostat-controlled, isobaric colorectal distensions (CRD) in rats to evaluate the potency and efficacy of test compounds in treating visceral hyperalgesia. Male Sprague Dawley rats, weighing 275-350 g, (Charles River Labs) were housed 2-4/cage in a temperature and humidity controlled room with a 12 h/12 h light/dark cycle and ad libitum access to food and water. One day after release from quarantine, rats were acclimated to progressively longer (30 min and, 4 h later, 45 min) periods of simple restraint in plexiglass devices (G-3, rat ECU; Braintree Scientific; Braintree Mass.). The rats were returned to their home cage overnight. […] The balloon pressure, which represents intracolonic pressure, was continuously recorded. […]
The following morning, colitis was induced by the intracolonic instillation of a 1.5-mL bolus of 2.5% (w/v) zymosan A (from Saccharomyces cerevisiae; Sigma Chemical Co., St. Louis) in 30% ethanol under light 70% CO2: 30% O2 anesthesia. […] The identical CRD stimuli were applied, and manometric VMRs were recorded and analyzed as described for the control phase of the experiment. […] CRD stimuli at 45 mmHg elicited peak responses in the control (pre-zymosan) condition; therefore, the responses of each rat were calculated as a percent of the manometric VMR at that pressure, recorded the day before induction of colitis; thus, each rat served as its own control. […]

rats = assay: CFA-induced paw radiant heat hypersensitivity; assay type: in vivo, rat; settings: HCl salt in 20% HPβCD, treatment time 30 min
Method: Each rat was placed in a test chamber on a thermally controlled glass surface and allowed to acclimate for approximately 10 min. A radiant thermal stimulus (beam of light) was then focused through the glass onto the plantar surface of the hind paw. The thermal stimulus was automatically shut off by a photoelectric relay when the paw was moved or when the cut-off time was reached (20 sec). An initial (baseline) response latency to the thermal stimulus was recorded for each animal prior to the injection of CFA. 24 h following intraplantar CFA injection, the response latency to the thermal stimulus was then re-evaluated and compared to the animal's baseline response time. […] Immediately following the post-CFA latency assessment, test compound or vehicle (usually solutol, hydroxypropyl methylcellulose, hydroxypropyl beta-cyclodextrin or PEG-400) was administered i.p. or p.o. to rats. Post-compound treatment withdrawal latencies were assessed at fixed time intervals, typically 30, 60 and 120 minutes. The percent reversal of hypersensitivity is calculated according to the following formula: % reversal=(post dose latency-predoselatency)/(baseline (pre CFA) latency-predose latency)×100.
Compound #12 (as its corresponding HCl salt) was administered in a solution of 20% HPβCD, at a dose of 30 mg/kg, i.p. and a treatment time of 30 min.

Male Sprague Dawley rats [2] = assay: Chronic constriction injury (CCI)-induced model of neuropathic pain, acetone-induced hypersensitivity; assay type: in vivo; settings: HCl salt, 30 mg/kg oral dosing in 20% HPbCD
Source text: Male Sprague Dawley rats (225-450 g; n=5-8/treatment) were used to evaluate the ability of selected compounds of the Formula (I) to reverse CCI-induced cold hypersensitivity. Four loose ligatures of 4-0 chromic gut were surgically placed around the left sciatic nerve under inhalation anesthesia as described by Bennett et al (Bennett G J, Xie Y K. Pain 1988, 33(1): 87-107). Fourteen to 35 days following CCI surgery, subjects were placed in elevated observation chambers containing wire mesh floors, and five applications of acetone (0.05 mL/application separated by approximately 5 minutes) were spritzed onto the plantar surface of the paw using a multidose syringe. An abrupt withdrawal or lifting of the paw was considered a positive response. The number of positive responses was recorded for each rat over the five trials. Following baseline withdrawal determinations, compounds of formula (I) were administered in an appropriate vehicle, such as hydroxypropyl-β-cyclodextrin (HP β CD), methylcellulose, Methocel, 10% Solutol, or H2O, or the like, by the appropriate route, i.p. or p.o. The number of withdrawals were re-determined 1 to 4 h after compound administration. Results are presented as a percent inhibition of shakes, which was calculated for each subject as [1-(test compound withdrawals/pre-test withdrawals)]×100 and then averaged by treatment.

[3] = compound @10 μM (second of two columns with the same head), read-out: Ex. 5 % MAFP @10 μM (second column)

SMILES | Emax at 10 µM (HeLa cells; [3]) [%] | also measured
O=C(c1ccc(-c2ccccc2)cc1)N1CC(N2CCN(c3ncccn3)CC2)C1 [Compound #12, Biphenyl-4-yl-[3-(4-pyrimidin-2-yl-piperazin-1-yl)-azetidin-1-yl]-methanone] | 108 | Emax at 10 µM (HeLa cells; compound @10 μM as printed (first of two columns with the same head), read-out: Ex. 5 % MAFP @10 μM (first column)): 63.1%; hyperalgesic response (manometric VMR) to 45 mmHg CRD (Male Sprague Dawley rats [1]): 103.8±22.1 % of control; reversal of hypersensitivity (rats; 30 mg/kg, i.p.): 90.3%; ED50 (rats; Rattus norvegicus, ip, 0.5 h): 0.9 mg/kg; Percent Inhibition (of shakes) (Male Sprague Dawley rats [2]; pretreatment time 1 hr): 57.1%; Percent Inhibition (of shakes) (Male Sprague Dawley rats [2]; pretreatment time 2 hr): 74.3%; Percent Inhibition (of shakes) (Male Sprague Dawley rats [2]; pretreatment time 3 hr): 80.0%; Percent Inhibition (of shakes) (Male Sprague Dawley rats [2]; pretreatment time 4 hr): 48.6%
O=C(c1ccc(N2CCCC2)cc1)N1CC(N2CCN(c3ncccn3)CC2)C1 [Compound #2, 2-(4-{1-[(4-Pyrrolidin-1-ylphenyl)carbonyl]azetidin-3-yl}piperazin-1-yl)pyrimidine] | 105 | 
O=C(c1ccc(-c2cccc(C(F)(F)F)c2)cc1)N1CC(N2CCN(c3ncccn3)CC2)C1 [compound 4, 2-[4-(1-{[3′-(Trifluoromethyl)biphenyl-4-yl]carbonyl}azetidin-3-yl)piperazin-1-yl]pyrimidine] | 112 | 
O=C(c1ccc(-c2ccccc2Cl)cc1)N1CC(N2CCN(c3ncccn3)CC2)C1 [compound 8, 2-(4-{1-[(2′-Chlorobiphenyl-4-yl)carbonyl]azetidin-3-yl}piperazin-1-yl)pyrimidine] | 58.3 | 
CN(c1ccccc1)c1ccc(C(=O)N2CC(N3CCN(c4ccccn4)CC3)C2)cc1 [compound 18, N-Methyl-N-phenyl-4-{[3-(4-pyridin-2-ylpiperazin-1-yl)azetidin-1-yl]carbonyl}aniline] | 66.2 | 
O=C(c1ccc(N2CCCCCC2)cc1)N1CC(N2CCN(c3ccccn3)CC2)C1 [compound 3, 1-(4-{[3-(4-Pyridin-2-ylpiperazin-1-yl)azetidin-1-yl]carbonyl}phenyl)azepane] | 67.3 | 
O=C(c1ccccc1)c1ccc(C(=O)N2CC(N3CCN(c4ccccn4)CC3)C2)cc1 [compound 74, Phenyl(4-{[3-(4-pyridin-2-ylpiperazin-1-yl)azetidin-1-yl]carbonyl}phenyl)methanone] | 29.5 | 
CCCCc1ccc(C(=O)N2CC(N3CCN(c4ccccn4)CC3)C2)cc1 [compound 35, 1-{1-[(4-Butylphenyl)carbonyl]azetidin-3-yl}-4-pyridin-2-ylpiperazine] | 66.7 | 
O=C(c1ccc(OCc2ccccc2)cc1)N1CC(N2CCN(c3ncccn3)CC2)C1 [compound 111, 2-[4-(1-{[4-(Benzyloxy)phenyl]carbonyl}azetidin-3-yl)piperazin-1-yl]pyrimidine] | 106 | 
O=C(c1ccc(-c2ccccc2)cc1)N1CC(N2CCN(c3nccs3)CC2)C1 [compound 36, 1-[1-(Biphenyl-4-ylcarbonyl)azetidin-3-yl]-4-(1,3-thiazol-2-yl)piperazine] | 91.3 | 
O=C(c1ccc(C2CCCCC2)cc1)N1CC(N2CCN(c3ccccn3)CC2)C1 [compound 15, 1-{1-[(4-Cyclohexylphenyl)carbonyl]azetidin-3-yl}-4-pyridin-2-ylpiperazine] | 47.6 | 
N#Cc1cccnc1N1CCN(C2CN(C(=O)c3ccc(-c4ccccc4)cc3)C2)CC1 [compound 23, 2-(4-[1-(Biphenyl-4-ylcarbonyl)azetidin-3-yl]piperazin-1-yl}pyridine-3-carbonitrile] | 96.8 | 
